Reference: paper PMC10418725, “Trypsin from Pyloric Caeca of Asian Seabass: Purification, Characterization, and Its Use in the Hydrolysis of Acid-Soluble Collagen” (Foods, 2023)

Tested on: purified trypsin (PT) from the pyloric caeca of Asian seabass
Test: 4-nitroaniline release, A410; Lineweaver-Burk
Type: biochemical, Lates calcarifer
Conditions: 30 °C, optimal pH (8.5) per Table 3 footnote; free enzyme; b65 text prints 0.0078 (no unit)

Km: 78 µM
Structure (SMILES): NC(N)=NCCCC(NC(=O)c1ccccc1)C(=O)Nc1ccc([N+](=O)[O-])cc1 (stereo not shown) [BAPNA]
